#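 How tested: cells in 96-well plates exposed to compound for 48 hours at five concentrations. TGI: total growth inhibition.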
# What was measured:
# Assay in all cases: inhibition of tumour cell growth, NCI panel, 48 h
# [1] = system: HS 578T breast
# [2] = system: SNB-75 CNS
# [3] = system: MDA-N
# [4] = system: SR leukemia
# [5] = system: SF-539 CNS
# [6] = system: SF-295 CNS
# [7] = system: T-47D breast
# [8] = system: SK-MEL-28 melanoma
# [9] = system: HL-60(TB) leukemia
# [10] = system: SW-620 colon
# [11] = system: NCI-H460 lung
# [12] = system: MCF7 breast
# [13] = system: MDA-MB-231 breast
# [14] = system: LOX IMVI melanoma
# [15] = system: ACHN renal
# [16] = system: COLO 205 colon
# [17] = system: PC-3 prostate
# [18] = system: BT-549 breast
# [19] = system: HOP-62 NSCLC
# [20] = system: UO-31 renal
# [21] = system: 786-0 renal
# [22] = system: HT29 colon
# [23] = system: NCI-H226 lung
# [24] = system: SK-OV-3 ovarian
# [25] = system: SN12C renal
# [26] = system: OVCAR-3 ovarian
# [27] = system: NCI/ADR-RES ovarian
# [28] = system: HCT-15 colon
# [29] = system: HOP-92 NSCLC
# [30] = system: K-562 leukemia
# [31] = system: TK-10 renal
# [32] = system: UACC-257 melanoma
# [33] = system: M14 melanoma
# [34] = system: MOLT-4 leukemia
# [35] = system: NCI-H23 lung
# [36] = system: U251 CNS
# [37] = system: CAKI-1 renal
# [38] = system: UACC-62 melanoma
# [39] = system: RXF 393 renal
# [40] = system: HCC-2998 colon
# [41] = system: CCRF-CEM leukemia
# [42] = system: SK-MEL-2 melanoma
# [43] = system: IGROV1 ovarian
# [44] = system: MDA-MB-435
# [45] = system: RPMI-8226 leukemia
# [46] = system: A549 NSCLC
# [47] = system: OVCAR-4 ovarian
# [48] = system: SK-MEL-5 melanoma
# [49] = system: EKVX NSCLC
# [50] = system: OVCAR-5 ovarian
# [51] = system: OVCAR-8 ovarian
# [52] = system: HCT-116 colon
# [53] = system: A498 renal
# [54] = system: KM12 colon
# [55] = system: DU-145 prostate
# [56] = system: SNB-19 CNS
# [57] = system: MALME-3M melanoma
# [58] = system: SF-268 CNS
# [59] = system: NCI-H522 lung
smiles,measurement,setting,value
COC(=O)C1=C(O)C(C(=O)OC)[C@]2(O)[C@H](C(=O)OC)[C@H]1C[C@@H](c1ccc(OC)c(OC)c1)[C@H]2C(=O)OC (some centres undefined),TGI,[1],> 100 µM
same,TGI,[2],46 µM
same,TGI,[3],> 100 µM
same,TGI,[4],46.6 µM
same,TGI,[5],20.7 µM
same,TGI,[6],94.7 µM
same,TGI,[7],> 100 µM
same,TGI,[8],90.7 µM
same,TGI,[9],62.9 µM
same,TGI,[10],> 100 µM
same,TGI,[11],42.1 µM
same,TGI,[12],> 100 µM
same,TGI,[13],> 100 µM
same,TGI,[14],29.6 µM
same,TGI,[15],> 100 µM
same,TGI,[16],66.3 µM
same,TGI,[17],> 100 µM
same,TGI,[18],83.7 µM
same,TGI,[19],> 100 µM
same,TGI,[20],> 100 µM
same,TGI,[21],> 100 µM
same,TGI,[22],> 100 µM
same,TGI,[23],29 µM
same,TGI,[24],68.2 µM
same,TGI,[25],> 100 µM
same,TGI,[26],62.5 µM
same,TGI,[27],54.5 µM
same,TGI,[28],36.5 µM
same,TGI,[29],> 100 µM
same,TGI,[30],77.3 µM
same,TGI,[31],> 100 µM
same,TGI,[32],> 100 µM
same,TGI,[33],> 100 µM
same,TGI,[34],69.8 µM
same,TGI,[35],> 100 µM
same,TGI,[36],25.3 µM
same,TGI,[37],> 100 µM
same,TGI,[38],> 100 µM
same,TGI,[39],48.4 µM
same,TGI,[40],27.1 µM
same,TGI,[41],> 100 µM
same,TGI,[42],99.4 µM
same,TGI,[43],> 100 µM
same,TGI,[44],44.2 µM
same,TGI,[45],19.1 µM
same,TGI,[46],54.4 µM
same,TGI,[47],> 100 µM
same,TGI,[48],> 100 µM
same,TGI,[49],> 100 µM
same,TGI,[50],> 100 µM
same,TGI,[51],31.1 µM
same,TGI,[52],> 100 µM
same,TGI,[53],54.7 µM
same,TGI,[54],54.5 µM
same,TGI,[55],93.8 µM
same,TGI,[56],73.3 µM
Cc1cc(C)c2c(O)c(S(=O)(=O)c3ccc(Cl)cc3)c(=O)oc2c1,TGI,[1],> 100 µM
same,TGI,[2],> 100 µM
same,TGI,[3],> 100 µM
same,TGI,[4],> 100 µM
same,TGI,[5],> 100 µM
same,TGI,[6],> 100 µM
same,TGI,[7],> 100 µM
same,TGI,[8],> 100 µM
same,TGI,[9],> 100 µM
same,TGI,[10],> 100 µM
same,TGI,[11],> 100 µM
same,TGI,[12],> 100 µM
same,TGI,[13],> 100 µM
same,TGI,[16],> 100 µM
same,TGI,[17],> 100 µM
same,TGI,[18],> 100 µM
same,TGI,[19],> 100 µM
same,TGI,[20],> 100 µM
same,TGI,[21],> 100 µM
same,TGI,[22],> 100 µM
same,TGI,[23],> 100 µM
same,TGI,[24],> 100 µM
same,TGI,[25],> 100 µM
same,TGI,[26],> 100 µM
same,TGI,[27],> 100 µM
same,TGI,[57],> 100 µM
same,TGI,[28],> 100 µM
same,TGI,[29],> 100 µM
same,TGI,[30],> 100 µM
same,TGI,[32],> 100 µM
same,TGI,[33],> 100 µM
same,TGI,[35],> 100 µM
same,TGI,[58],> 100 µM
same,TGI,[36],> 100 µM
same,TGI,[37],> 100 µM
same,TGI,[38],> 100 µM
same,TGI,[39],> 100 µM
same,TGI,[41],> 100 µM
same,TGI,[42],> 100 µM
same,TGI,[43],> 100 µM
same,TGI,[44],> 100 µM
same,TGI,[45],> 100 µM
same,TGI,[46],> 100 µM
same,TGI,[47],> 100 µM
same,TGI,[48],> 100 µM
same,TGI,[49],93 µM
same,TGI,[50],> 100 µM
same,TGI,[51],> 100 µM
same,TGI,[52],> 100 µM
same,TGI,[53],> 100 µM
same,TGI,[54],> 100 µM
same,TGI,[55],> 100 µM
same,TGI,[56],> 100 µM
c1ccc(-c2nc3ccccc3n3c(CN4CCCCC4)nnc23)cc1,TGI,[1],> 100 µM
same,TGI,[2],40.7 µM
same,TGI,[3],> 100 µM
same,TGI,[4],> 100 µM
same,TGI,[5],> 100 µM
same,TGI,[6],> 100 µM
same,TGI,[7],> 100 µM
same,TGI,[8],> 100 µM
same,TGI,[10],> 100 µM
same,TGI,[11],> 100 µM
same,TGI,[12],> 100 µM
same,TGI,[13],> 100 µM
same,TGI,[14],> 100 µM
same,TGI,[15],> 100 µM
same,TGI,[16],> 100 µM
same,TGI,[17],> 100 µM
same,TGI,[18],> 100 µM
same,TGI,[19],> 100 µM
same,TGI,[21],> 100 µM
same,TGI,[22],> 100 µM
same,TGI,[23],> 100 µM
same,TGI,[24],> 100 µM
same,TGI,[25],> 100 µM
same,TGI,[26],> 100 µM
same,TGI,[59],> 100 µM
same,TGI,[27],> 100 µM
same,TGI,[57],> 100 µM
same,TGI,[28],> 100 µM
same,TGI,[29],> 100 µM
same,TGI,[30],> 100 µM
same,TGI,[31],> 100 µM
same,TGI,[32],> 100 µM
same,TGI,[33],> 100 µM
same,TGI,[34],> 100 µM
same,TGI,[58],> 100 µM
same,TGI,[36],> 100 µM
same,TGI,[37],> 100 µM
same,TGI,[38],> 100 µM
same,TGI,[39],> 100 µM
same,TGI,[40],> 100 µM
same,TGI,[41],> 100 µM
same,TGI,[42],> 100 µM
same,TGI,[43],> 100 µM
same,TGI,[44],> 100 µM
same,TGI,[45],> 100 µM
same,TGI,[46],> 100 µM
same,TGI,[47],> 100 µM
same,TGI,[48],> 100 µM
same,TGI,[49],> 100 µM
same,TGI,[50],> 100 µM
same,TGI,[51],> 100 µM
same,TGI,[52],> 100 µM
same,TGI,[53],> 100 µM
same,TGI,[55],> 100 µM
same,TGI,[56],> 100 µM

# Source: PubChem BioAssay (NCI)
